In US20090075941A1, “TREATING NEOPLASMS” (THE UAB RESEARCH FOUNDATION, priority 2006, published 2009):

Assays:
J774 cells = assay: Cell viability, MTS-assay; assay type: cell-based
Protocol: (§1) Cell viability assays. Cells were plated on 96-well plates at the density of 1×10^3 cells in 100 μl per well in normal culture medium, with or without of the indicated concentrations of the various bisphosphonate combinations and or 1 mM CaCl2, 1 mM EGTA or vehicle and cultured for 48 h. Cell viability was assessed with 3-(4,5-dimethylthiazol-2-yl)-5-(3-carboxy tetrazolium, inner salt (MTS)-assays (CellTiter Aqueous One 96 from Promega; Madison, Wis.) according to the manufacturer's instructions. For each treatment, a PBS-control group was run simultaneously on the same plate. The results for each treatment were calculated as % of the corresponding PBS-group.

[1] = tested on: unprenylated Rap1A in AC29 cells; assay: Western blot, accumulation of unprenylated Rap1A (Example 1); assay type: cell-based, mouse
Protocol: (§2) Western blotting. AB12 and AC29 cells were plated on 6-well plates in normal culture medium until near confluency. The cells were then rinsed with sterile PBS and cultured for further 24 h in serum-free culture medium, in the presence or absence of 2×10^−4-10^−5 M risedronate, zoledronate or PBS control, with or without 25 μM geranylgeraniol, or the same volume of ethanol as a vehicle control. Culture medium was discarded and the cells were harvested in lysis buffer (20 mM Tris pH 7.4, 150 mM NaCl, 1 mM EDTA, 1 mM EGTA, 1% Triton, 2.5 mM sodium pyrophosphate, 1 mM β-glycerolphosphate, 1 mM Na3VO4, 1 μg/ml leupeptin (Cell Signaling Technology, Inc.; Danvers, Mass.)) and clarified by centrifugation. After boiling the supernatants in reducing SDS sample buffer, equal amounts of protein (˜50 μg) were loaded per lane and the samples were electrophoresed on 10% polyacrylamide SDS gel and transferred to a nitrocellulose membrane. Unprenylated Rap1A was detected with the antibody SC-1482 and total Rap1 (both prenylated and unprenylated forms of both Rap1A and Rap1B) was detected with the antibody SC-65 (Santa Cruz Biotechnology, Inc.; Santa Cruz, Calif.), according to the manufacturer's recommendations. The phosphorylation status of p38 was studied with anti-phospho-p38 and anti-total p38 antibodies (Cell Signaling Technology, Inc.), as recommended by the manufacturer. The protein bands were visualized by chemiluminescence using SuperSignal West Pico ECL kit (Pierce; Rockford, Ill.).

[2] = tested on: unprenylated Rap1A in AB12 cells; assay: as above; assay type: cell-based, mouse
Protocol: as §2

MDA-MB-231 cells = assay: Cell viability, MTS-assay; assay type: cell-based, human
Protocol: as §1

[3] = tested on: unprenylated Rap1A in MDA-MB-231 breast cancer cells; assay: Western blot, unprenylated Rap1A (Example 2); assay type: cell-based, human; conditions: MDA-MB-231 cells; 24 h
Protocol: Western blot analysis. Cells were cultured on 6-well plates in normal culture medium until near confluency. The cells were then rinsed with sterile PBS and cultured for further 24 h in serum-tree culture medium, in the presence or absence of the indicated bisphosphonates. Some cultures were also treated with 25 μM geranylgeraniol (cold, all trans), 1.0 μg/ml LPS (Sigma; St. Louis, Mo.) 10 ng/ml IL-1β (R&D Systems; Minneapolis, Minn.) or TNF-α (R&D Systems). To study bisphosphonate effects on connexin-43 expression, the cells were cultured for 24 h in serum-free culture medium in the presence of the indicated bisphosphonates or PBS as a vehicle control. Culture medium was then discarded, the cells were quickly lysed and prepared into Western blot samples, as described in Merrell et al. (2000) Breast Cancer Res. Treat. 81, 231-241. After boiling the supernatants in reducing sodium docedyl sulfate (SDS) sample buffer, equal amounts of protein (˜20-50 μg) were loaded per lane and the samples were electrophoresed on 10% SDS polyacrylamide gel and transferred to a nitrocellulose membrane. To detect, unprenylated Rap1A, the blots were incubated overnight at 4° C. with the antibody SC-1482 (Santa Cruz Technology (San Diego, Calif.)), diluted 1:1000 in Tris-buffered saline, 0.1% (v/v) Tween-20 (TEST), and then with peroxidase-conjugated anti-goat serum (Pierce; Rockford, Ill.), diluted 1:1000 in TBST. Total Rap1 was detected from stripped blots in a similar fashion, with the antibody SC-65 (Santa Cruz Technology). The phosphorylation status of p38 was investigated using anti-phospho-p38 (Cell Signaling; Beverly, Mass.) and after stripping of the membrane, with anti-total p38 antibodies (Cell Signaling), according to the manufacturer's instructions. Expression of connexin-43 was detected with a rabbit anti-connexin-43 antibody (Zymed Laboratories, Inc.; San Francisco, Calif.), diluted 1:1000 in TBST. The protein bands were visualized by chemiluminescence using SuperSignal West Pico ECL kit (Pierce Biotechnology, Inc.; Rockford, Ill.).

AC29 cells = assay: In vitro growth assay, BrdU incorporation; assay type: cell-based, mouse; conditions: with p38 inhibitor SB202190 10^−5 M vs inactive control compound, 5 days
Protocol: (§3) In vitro growth assay. […] Briefly, […] were plated onto 96-well plates in 100 μl of normal culture medium. The cells were then treated with the indicated agents for various times. BrdU was added to the wells for the final 24 h and incorporated BrdU was detected with sequential additions of monoclonal mouse anti-BrdU antibody and HRP-conjugated anti-mouse antibody. After addition of the substrate for HRP, intensity of the colored reaction product, which is proportional to the amount of BrdU incorporated into the cells, was read with spectrophotometer at […].

AB12 cells = assay: In vitro growth assay, BrdU incorporation; assay type: cell-based, mouse; conditions: with p38 inhibitor SB202190 10^−5 M vs inactive control compound, 5 days
Protocol: as §3

[4] = N-BP 10^−4 M + clodronate 10^−3 M
[5] = N-BP 10^−4 M + etidronate 10^−3 M

Q: Which “effect of added EGTA on the bisphosphonate's growth inhibitory effect” value (J774 cells; 1 mM EGTA, N-BP 10^−4 M or clodronate 10^−3 M) does the source give for `O=P(O)(O)C(O)(Cc1cccnc1)P(=O)(O)O` [risedronate] here?
A: Its value is “reversed”.

Q: And the cell viability (J774 cells; 10^−4 M)?
A: Its cell viability is “significantly decreased cellular viability”.

Q: And the “effect of excess clodronate on the viability change induced by the nitrogen-containing bisphosphonate” value (J774 cells; [4])?
A: Its value is “significantly reversed”.

Q: What about the “effect of excess etidronate on the viability change induced by the nitrogen-containing bisphosphonate” value (J774 cells; [5]) of the same compound?
A: The value was “reversed”.

Q: What about the “accumulation of unprenylated Rap1A” value ([1]; 24 h, 2×10^−4-2×10^−6 M) of the same compound?
A: Its value is “dose-dependent accumulation”.

Q: What about the “reversal of BP-induced accumulation of unprenylated Rap1A by geranylgeraniol” value ([1]; with 25 μM geranylgeraniol) of the same compound?
A: The value was “almost completely reversed”.

Q: And the “accumulation of unprenylated Rap1A” value ([2]; 24 h, 2×10^−4-2×10^−6 M)?
A: Its value is “dose-dependent accumulation”.

Q: And the “reversal of BP-induced accumulation of unprenylated Rap1A by geranylgeraniol” value ([2]; with 25 μM geranylgeraniol)?
A: Its value is “almost completely reversed”.

Q: What about the “effect of added Ca2+ on the bisphosphonate's growth inhibitory effect” value (MDA-MB-231 cells; 1 mM CaCl2, N-BP 10^−4 M or p-BP 10^−3 M) of the same compound?
A: Its value is “enhanced”.

Q: What about the “effect of excess clodronate on the viability change induced by the nitrogen-containing bisphosphonate” value (MDA-MB-231 cells; [4]) of the same compound?
A: Its value is “did not interfere”.

Q: What about the “effect of excess etidronate on the viability change induced by the nitrogen-containing bisphosphonate” value (MDA-MB-231 cells; [5]) of the same compound?
A: The value was “increased”.

Q: What about the “accumulation of unprenylated Rap1A” value [3] of the same compound?
A: Its value is “dose-dependent accumulation”.

Q: What about the “BP-induced growth inhibition on inhibition of p38” value (AC29 cells) of the same compound?
A: The value was “augmented”.

Q: And the “BP-induced growth inhibition on inhibition of p38” value (AB12 cells)?
A: Its value is “augmented”.
